Patent US20140023611A1 (priority 2010, published 2014)
pIC50: −log10 of the molar value.

target: T1, rat NaP2b (SLC34A2) (Rattus norvegicus, UniProt Q9JJ09); experiment: Inhibition of NaP2b-mediated Pi (33P) uptake in transfected HEK293 cells, rat NaP2b; type: cell-based; conditions: 33P Pi uptake, 0.1 mM phosphate, value given as pIC50 range
T1 construct: host or cells: HEK293
T1 sequence (Q9JJ09 1-695): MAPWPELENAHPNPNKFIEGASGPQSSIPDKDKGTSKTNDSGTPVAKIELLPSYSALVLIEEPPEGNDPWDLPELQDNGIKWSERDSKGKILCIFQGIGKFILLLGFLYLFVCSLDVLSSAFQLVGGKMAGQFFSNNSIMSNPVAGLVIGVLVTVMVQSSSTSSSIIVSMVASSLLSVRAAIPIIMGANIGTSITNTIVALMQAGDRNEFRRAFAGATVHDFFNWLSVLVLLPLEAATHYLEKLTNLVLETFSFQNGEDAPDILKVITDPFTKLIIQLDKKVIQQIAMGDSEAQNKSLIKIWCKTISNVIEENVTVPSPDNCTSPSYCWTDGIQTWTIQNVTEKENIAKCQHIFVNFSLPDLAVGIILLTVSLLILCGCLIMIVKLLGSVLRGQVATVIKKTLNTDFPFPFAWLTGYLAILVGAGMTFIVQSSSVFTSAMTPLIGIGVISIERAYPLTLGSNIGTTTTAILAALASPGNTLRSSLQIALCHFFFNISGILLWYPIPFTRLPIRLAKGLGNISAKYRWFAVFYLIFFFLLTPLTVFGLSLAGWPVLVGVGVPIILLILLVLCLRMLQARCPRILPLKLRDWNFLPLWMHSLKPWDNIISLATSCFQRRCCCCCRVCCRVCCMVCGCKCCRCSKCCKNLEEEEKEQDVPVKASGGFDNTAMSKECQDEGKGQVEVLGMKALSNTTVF
Procedure: HEK293 cells were obtained from the American Type Culture collection and propagated per their instructions. […] The sequence of the human protein was mutated to insert a threonine after residue 37, and to introduce a N39D mutation.
Cells were seeded into 96-well plates at 25,000 cells/well and cultured overnight. Lipofectamine 2000 (Invitrogen) was used to introduce the NaP2b cDNA, and the cells were allowed to approach confluence during a second overnight incubation. […] Each compound was tested at twelve concentrations ranging from 0.1 nM to 30 uM. Assays were run in duplicate.
Cells were lysed by addition of 20 μL 0.1% Tween 80 followed by 100 μL scintillation fluid, and counted using a TopCount (Perkin Elmer).
pIC50 (the negative log of the IC50) values of the test compounds were calculated using GraphPad Prism.

How did the pIC50 turn out when `O=C(O)CNC(=O)CCSCc1cccc(C(=O)Nc2ccc(N3CCCCC3)cc2-c2cc(C(=O)NCc3cccc(C(F)(F)F)c3)ccn2)c1` [Example 4.18, 2-(3-((3-((4-(Piperidin-1-yl)-2-(4-((3-(trifluoromethyl)benzyl)carbamoyl)pyridin-2-yl)phenyl)carbamoyl)benzyl)thio)propanamido)acetic acid] was run?
The pIC50 was 4.50 to 5.00.

With `COCCN(C)CCN(C)C(=O)c1cccc(C(=O)Nc2ccc(N3CCCCC3)cc2-c2cc(C(=O)NCc3cccc(C(F)(F)F)c3)ccn2)c1` [Example 4.20.2, N1-(2-((2-Methoxyethyl)(methyl)amino)ethyl)-N1-methyl-N3-(4-(piperidin-1-yl)-2-(4-((3-(trifluoromethyl)benzyl)carbamoyl)pyridin-2-yl)phenyl)isophthalamide] as the compound, how does the pIC50 read?
Its pIC50 is 5.10 to 6.00.

`CN(CCO)CCN(C)C(=O)c1cccc(C(=O)Nc2ccc(N3CCCCC3)cc2-c2cc(C(=O)NCc3cccc(C(F)(F)F)c3)ccn2)c1` [Example 4.21, N1-(2-((2-Hydroxyethyl)(methyl)amino)ethyl)-N1-methyl-N3-(4-(piperidin-1-yl)-2-(4-((3-(trifluoromethyl)benzyl)carbamoyl)pyridin-2-yl)phenyl)isophthalamide] was tested. Which pIC50 did it give?
Its pIC50 is 5.10 to 6.00.

With `CN(CCNC(=O)OC(C)(C)C)C(=O)c1cccc(C(=O)Nc2ccc(N3CCCCC3)cc2-c2cc(C(=O)NCc3cccc(C(F)(F)F)c3)ccn2)c1` [Example 4.22] as the compound, how does the pIC50 read?
The pIC50 was 4.50 to 5.00.

How did the pIC50 turn out when `O=C(NCc1cccc(C(F)(F)F)c1)c1ccnc(-c2cc(N3CCCCC3)ccc2NC(=O)c2cccc(C(=O)N3CCC(N4CCOCC4)CC3)c2)c1` [Example 4.23] was run?
The pIC50 was 4.50 to 5.00.

With `CN(Cc1ncc[nH]1)C(=O)c1cccc(C(=O)Nc2ccc(N3CCCCC3)cc2-c2cc(C(=O)NCc3cccc(C(F)(F)F)c3)ccn2)c1` [Example 4.24] as the compound, how does the pIC50 read?
The pIC50 was 5.10 to 6.00.

With `CN(Cc1nccn1C)C(=O)c1cccc(C(=O)Nc2ccc(N3CCCCC3)cc2-c2cc(C(=O)NCc3cccc(C(F)(F)F)c3)ccn2)c1` [Example 4.25] as the compound, how does the pIC50 read?
Its pIC50 is 5.10 to 6.00.

How did the pIC50 turn out when `CN(Cc1cccnc1)C(=O)c1cccc(C(=O)Nc2ccc(N3CCCCC3)cc2-c2cc(C(=O)NCc3cccc(C(F)(F)F)c3)ccn2)c1` [Example 4.27] was run?
The pIC50 was 5.10 to 6.00.

How did the pIC50 turn out when `CN(CCn1ccnc1)C(=O)c1cccc(C(=O)Nc2ccc(N3CCCCC3)cc2-c2cc(C(=O)NCc3cccc(C(F)(F)F)c3)ccn2)c1` [Example 4.28] was run?
Its pIC50 is 5.10 to 6.00.

With `O=C(NCc1cccc(C(F)(F)F)c1)c1ccnc(-c2cc(N3CCCCC3)ccc2NC(=O)c2cccc(C(=O)N3CCC(CCO)CC3)c2)c1` [Example 4.29] as the compound, how does the pIC50 read?
The pIC50 was 5.10 to 6.00.

How did the pIC50 turn out when `O=C(NCc1cccc(C(F)(F)F)c1)c1ccnc(-c2cc(N3CCCCC3)ccc2NC(=O)c2cccc(C(=O)N3CCC(CO)CC3)c2)c1` [Example 4.30] was run?
Its pIC50 is 5.10 to 6.00.

With `O=C(O)CC1CCN(C(=O)c2cccc(C(=O)Nc3ccc(N4CCCCC4)cc3-c3cc(C(=O)NCc4cccc(C(F)(F)F)c4)ccn3)c2)CC1` [Example 4.31, 2-(1-(3-(4-(Piperidin-1-yl)-2-(4-(3-(trifluoromethyl)benzylcarbamoyl)pyridin-2-yl)phenylcarbamoyl)benzoyl)piperidin-4-yl)acetic acid] as the compound, how does the pIC50 read?
The pIC50 was 4.50 to 5.00.

With `CN(Cc1cccc(C(=O)O)c1)C(=O)c1cccc(C(=O)Nc2ccc(N3CCCCC3)cc2-c2cc(C(=O)NCc3cccc(C(F)(F)F)c3)ccn2)c1` [Example 4.32, 3-((N-Methyl-3-(4-(piperidin-1-yl)-2-(4-(3-(trifluoromethyl)benzylcarbamoyl)pyridin-2-yl)phenylcarbamoyl)benzamido)methyl)benzoic acid] as the compound, how does the pIC50 read?
Its pIC50 is 5.10 to 6.00.

With `O=C(O)CCSCc1cccc(C(=O)Nc2ccc(N3CCCCC3)cc2-c2cc(C(=O)CCc3ccccc3)ccn2)c1` [Example 5.1, 3-((3-((2-(4-(3-Phenylpropanoyl)pyridin-2-yl)-4-(piperidin-1-yl)phenyl)carbamoyl)benzyl)thio)propanoic acid] as the compound, how does the pIC50 read?
Its pIC50 is 5.10 to 6.00.

How did the pIC50 turn out when `O=C(O)CCSCc1cccc(C(=O)Nc2ccc(N3CCCCC3)cc2-c2cc(C(=O)c3cccc(C(F)(F)F)c3)ccn2)c1` [Example 5.2, 3-((3-((4-(piperidin-1-yl)-2-(4-(3-(trifluoromethyl)benzoyl)pyridin-2-yl)phenyl)carbamoyl)benzyl)thio)propanoic acid] was run?
The pIC50 was 4.50 to 5.00.

`O=C(O)CCSCc1cccc(C(=O)Nc2ccc(N3CCCCC3)cc2-c2cc(C(O)c3cccc(C(F)(F)F)c3)ccn2)c1` (stereo not shown) [Example 6.2, 3-((3-((2-(4-(Hydroxy(3-(trifluoromethyl)phenyl)methyl)pyridin-2-yl)-4-(piperidin-1-yl)phenyl)carbamoyl)benzyl)thio)propanoic acid] was tested. Which pIC50 did it give?
Its pIC50 is 4.50 to 5.00.

With `O=C(O)CCSCc1cccc(C(=O)Nc2ccc(N3CCCCC3)cc2-c2cc(CNCc3cccc(C(F)(F)F)c3)ccn2)c1` [Example 7] as the compound, how does the pIC50 read?
The pIC50 was 4.50 to 5.00.

With `O=C(NCc1cccc(C(F)(F)F)c1)c1ccnc(-c2cc(N3CCCCC3)ccc2NC(=O)c2cccc(CSCCO)c2)c1` [Example 8.2] as the compound, how does the pIC50 read?
The pIC50 was 5.10 to 6.00.

`O=C(NCc1cccc(C(F)(F)F)c1)c1ccnc(-c2cc(N3CCCCC3)ccc2NC(=O)c2cccc(CSCCCCO)c2)c1` [Example 8.4] was tested. Which pIC50 did it give?
Its pIC50 is 5.10 to 6.00.

With `O=C(O)CCCSCc1cccc(C(=O)Nc2ccc(N3CCCCC3)cc2-c2cc(C(=O)NCc3cccc(C(F)(F)F)c3)ccn2)c1` [Example 8.5] as the compound, how does the pIC50 read?
Its pIC50 is 5.10 to 6.00.

With `O=C(O)CCOCCOCCOCCOCCSCc1cccc(C(=O)Nc2ccc(N3CCCCC3)cc2-c2cc(C(=O)NCc3cccc(C(F)(F)F)c3)ccn2)c1` [Example 8.7] as the compound, how does the pIC50 read?
Its pIC50 is 5.10 to 6.00.

`O=C(O)CCc1ccc(SCc2cccc(C(=O)Nc3ccc(N4CCCCC4)cc3-c3cc(C(=O)NCc4cccc(C(F)(F)F)c4)ccn3)c2)cc1` [Example 8.8] was tested. Which pIC50 did it give?
The pIC50 was greater than 6.00.

How did the pIC50 turn out when `O=C(O)CCCc1ccc(SCc2cccc(C(=O)Nc3ccc(N4CCCCC4)cc3-c3cc(C(=O)NCc4cccc(C(F)(F)F)c4)ccn3)c2)cc1` [Example 8.9] was run?
The pIC50 was 5.10 to 6.00.

How did the pIC50 turn out when `CC(C)(C)OC(=O)NC(CSCc1cccc(C(=O)Nc2ccc(N3CCCCC3)cc2-c2cc(C(=O)NCc3cccc(C(F)(F)F)c3)ccn2)c1)C(=O)O` (stereo not shown) [Example 8.10] was run?
The pIC50 was 4.50 to 5.00.

With `CC(=O)NC(C(=O)O)C(C)(C)SCc1cccc(C(=O)Nc2ccc(N3CCCCC3)cc2-c2cc(C(=O)NCc3cccc(C(F)(F)F)c3)ccn2)c1` (stereo not shown) [Example 8.11] as the compound, how does the pIC50 read?
The pIC50 was 4.50 to 5.00.

`CC(C)C(=O)NC(CSCc1cccc(C(=O)Nc2ccc(N3CCCCC3)cc2-c2cc(C(=O)NCc3cccc(C(F)(F)F)c3)ccn2)c1)C(=O)O` (stereo not shown) [Example 8.12] was tested. Which pIC50 did it give?
The pIC50 was 4.50 to 5.00.

How did the pIC50 turn out when `O=C(NCc1cccc(C(F)(F)F)c1)c1ccnc(-c2cc(N3CCCCC3)ccc2NC(=O)c2cccc(CSCCS(=O)(=O)O)c2)c1` [Example 8.13] was run?
The pIC50 was 4.50 to 5.00.

`O=C(NCc1cccc(C(F)(F)F)c1)c1ccnc(-c2cc(N3CCCCC3)ccc2NC(=O)c2cccc(CSc3ncc(C(=O)O)c(O)n3)c2)c1` [Example 8.14] was tested. Which pIC50 did it give?
The pIC50 was 5.10 to 6.00.

How did the pIC50 turn out when `O=C(O)c1ccc(SCc2cccc(C(=O)Nc3ccc(N4CCCCC4)cc3-c3cc(C(=O)NCc4cccc(C(F)(F)F)c4)ccn3)c2)nc1` [Example 8.15] was run?
Its pIC50 is 5.10 to 6.00.

`Cc1nc(SCc2cccc(C(=O)Nc3ccc(N4CCCCC4)cc3-c3cc(C(=O)NCc4cccc(C(F)(F)F)c4)ccn3)c2)sc1CC(=O)O` [Example 8.16] was tested. Which pIC50 did it give?
The pIC50 was 5.10 to 6.00.

`O=C(O)Cc1ccc(SCc2cccc(C(=O)Nc3ccc(N4CCCCC4)cc3-c3cc(C(=O)NCc4cccc(C(F)(F)F)c4)ccn3)c2)cc1` [Example 8.17] was tested. Which pIC50 did it give?
Its pIC50 is greater than 6.00.

With `O=C(O)CCCc1cccc(SCc2cccc(C(=O)Nc3ccc(N4CCCCC4)cc3-c3cc(C(=O)NCc4cccc(C(F)(F)F)c4)ccn3)c2)c1` [Example 8.19] as the compound, how does the pIC50 read?
Its pIC50 is 5.10 to 6.00.

How did the pIC50 turn out when `CC(C)(Cc1cccc(SCc2cccc(C(=O)Nc3ccc(N4CCCCC4)cc3-c3cc(C(=O)NCc4cccc(C(F)(F)F)c4)ccn3)c2)c1)C(=O)O` [Example 8.20] was run?
Its pIC50 is 5.10 to 6.00.

How did the pIC50 turn out when `O=C(O)CCOCCOCCOCCOCCOCCOCCOCCOCCSCc1cccc(C(=O)Nc2ccc(N3CCCCC3)cc2-c2cc(C(=O)NCc3cccc(C(F)(F)F)c3)ccn2)c1` [Example 8.22] was run?
The pIC50 was 5.10 to 6.00.

How did the pIC50 turn out when `O=C(O)c1ccc(SCc2cccc(C(=O)Nc3ccc(N4CCCCC4)cc3-c3cc(C(=O)NCc4cccc(C(F)(F)F)c4)ccn3)c2)cc1` [Example 8.23] was run?
Its pIC50 is 5.10 to 6.00.

With `O=C(NCc1cccc(C(F)(F)F)c1)c1ccnc(-c2cc(N3CCCCC3)ccc2NC(=O)c2cccc(CN3CCC(CO)CC3)c2)c1` [Example 8.27] as the compound, how does the pIC50 read?
The pIC50 was 4.50 to 5.00.

With `O=C(NCc1cccc(C(F)(F)F)c1)c1ccnc(-c2cc(N3CCCCC3)ccc2NC(=O)c2cccc(Cn3ccc4c(C(=O)O)cccc43)c2)c1` [Example 9.1, 1-(3-((4-(Piperidin-1-yl)-2-(4-((3-(trifluoromethyl)benzyl)carbamoyl)pyridin-2-yl)phenyl)carbamoyl)benzyl)-1H-indole-4-carboxylic acid] as the compound, how does the pIC50 read?
The pIC50 was 5.10 to 6.00.
